{"source": "patent US8658351B2", "about": "“Determining liver toxicity of an agent using metabolite biomarkers” (Metabolon, Inc., priority 2009, dated 2014)", "key": {"Rats [1]": {"test_system": "Rats", "assay": "Rat liver toxicant study: liver histopathology", "details": "for Histopathology (Steatosis) / Histopathology (Cholestasis) / Histopathology (Necrosis): rats, daily single oral dose; for Histopathology (Steatosis) / Histopathology (Cholestasis): day at which change was seen; for Histopathology (Necrosis): day at which change was seen (samples day 2 and day 5)", "procedure": "Rats were treated daily with a single oral dose of a known liver toxicants at low and high doses (as shown in Table 3) as well as with a vehicle control containing none of the toxicant. The hepatotoxic agents listed in Table 3 are known to induce distinct types of liver histopathology as described in Table 4. Plasma, urine, and liver samples were collected at day 2 and day 5 for metabolomic analysis, liver histopathology, and routine clinical chemistry (i.e., aspartate aminotransferase (AST), alanine aminotransferase (ALT), total bilirubin (TBIL), alkaline phosphatase (ALP))."}, "Rats [2]": {"test_system": "Rats", "assay": "Rat liver toxicant study: routine clinical chemistry (AST, ALT, TBIL, ALP)", "format": "in vivo", "details": "day at which change was seen", "method": "Rats were treated daily with a single oral dose of a known liver toxicants at low and high doses (as shown in Table 3) as well as with a vehicle control containing none of the toxicant. […] Plasma, urine, and liver samples were collected at day 2 and day 5 for metabolomic analysis, liver histopathology, and routine clinical chemistry (i.e., aspartate aminotransferase (AST), alanine aminotransferase (ALT), total bilirubin (TBIL), alkaline phosphatase (ALP))."}, "Rats [3]": {"test_system": "Rats", "details": "cited from earlier work"}, "humans": {"test_system": "humans", "details": "cited from earlier work"}, "[4]": {"details": "High dose, agents known to induce distinct types of liver histopathology"}, "[5]": {"details": "classified as No Rat Tox/Human specific"}}, "note": "Read-outs that look alike come from different tables or passages of the source."}
{"compound": "CCSCCC(N)C(=O)O", "note": "(racemic) [Ethionine, DL Ethionine]", "values": [{"measurement": "Histopathology (Steatosis)", "setting": "Rats [1]; high dose", "value": "Day2~"}, {"measurement": "Histopathology (Steatosis)", "setting": "Rats [1]; low dose", "value": "Day2"}, {"measurement": "Clinical Chemistry TBIL", "setting": "Rats [2]; high dose", "value": "Day2~"}, {"measurement": "Clinical Chemistry TBIL", "setting": "Rats [2]; low dose", "value": "Day2~"}, {"measurement": "Classification of toxic effect on liver histopathology (type of histopathology)", "setting": "Rats [3]; [4]", "value": "Steatosis"}]}
{"compound": "S=C=Nc1cccc2ccccc12", "note": "[ANIT, 1-naphthyl isothiocyanate]", "values": [{"measurement": "Histopathology (Cholestasis)", "setting": "Rats [1]; high dose", "value": "Day2~"}, {"measurement": "Histopathology (Cholestasis)", "setting": "Rats [1]; low dose", "value": "Day5"}, {"measurement": "Clinical Chemistry ALT", "setting": "Rats [2]; high dose", "value": "Day2~"}, {"measurement": "Clinical Chemistry AST", "setting": "Rats [2]; high dose", "value": "Day2~"}, {"measurement": "Clinical Chemistry TBIL", "setting": "Rats [2]; high dose", "value": "Day2~"}, {"measurement": "Clinical Chemistry ALT", "setting": "Rats [2]; low dose", "value": "Day5"}, {"measurement": "Clinical Chemistry TBIL", "setting": "Rats [2]; low dose", "value": "Day5"}]}
{"compound": "CC(=O)Nc1ccc(O)cc1", "note": "[Acetaminophen]", "values": [{"measurement": "Histopathology (Necrosis)", "setting": "Rats [1]; high dose", "value": "Day2"}, {"measurement": "Histopathology (Necrosis)", "setting": "Rats [1]; low dose", "value": "Day2"}]}
{"compound": "O=C(O)COc1nn(Cc2ccccc2)c2ccccc12", "note": "[Bendazac]", "values": [{"measurement": "Histopathology (Necrosis)", "setting": "Rats [1]; high dose", "value": "Day5"}, {"measurement": "Histopathology (Necrosis)", "setting": "Rats [1]; low dose", "value": "Day5"}, {"measurement": "Clinical Chemistry ALP", "setting": "Rats [2]; high dose", "value": "Day2~"}, {"measurement": "Clinical Chemistry ALT", "setting": "Rats [2]; high dose", "value": "Day5"}, {"measurement": "Clinical Chemistry ALP", "setting": "Rats [2]; low dose", "value": "Day2"}, {"measurement": "Clinical Chemistry ALT", "setting": "Rats [2]; low dose", "value": "Day5"}, {"measurement": "Classification of toxic effect on liver histopathology (type of histopathology)", "setting": "Rats [3]; rat, in vivo", "value": "Necrosis"}]}
{"compound": "NC(=O)N1c2ccccc2C=Cc2ccccc21", "note": "[Carbamazepine]", "values": [{"measurement": "Hepatotoxic changes in rats (histopathology, clinical chemistry)", "setting": "Rats [1]; [5]", "value": "no hepatotoxic changes"}, {"measurement": "Hepatotoxicity to humans", "setting": "humans", "value": "known hepatotoxins to humans"}, {"measurement": "Classification of toxic effect on liver histopathology (type of histopathology)", "setting": "Rats [3]; rat, in vivo", "value": "No Histopathology"}]}
{"compound": "ClC(Cl)(Cl)Cl", "note": "[Carbon tetrachloride]", "values": [{"measurement": "Histopathology (Steatosis)", "setting": "Rats [1]; high dose", "value": "Day2~"}, {"measurement": "Histopathology (Steatosis)", "setting": "Rats [1]; low dose", "value": "Day2~"}, {"measurement": "Classification of toxic effect on liver histopathology (type of histopathology)", "setting": "Rats [3]; [4]", "value": "Steatosis"}]}
{"compound": "CC(C)C(=O)Nc1ccc([N+](=O)[O-])c(C(F)(F)F)c1", "note": "[Flutamide]", "values": [{"measurement": "Hepatotoxic changes in rats (histopathology, clinical chemistry)", "setting": "Rats [1]; [5]", "value": "no hepatotoxic changes"}, {"measurement": "Clinical Chemistry TBIL", "setting": "Rats [2]; high dose", "value": "Day2"}, {"measurement": "Hepatotoxicity to humans", "setting": "humans", "value": "known hepatotoxins to humans"}, {"measurement": "Classification of toxic effect on liver histopathology (type of histopathology)", "setting": "Rats [3]; rat, in vivo", "value": "No Histopathology"}]}
{"compound": "CC(=O)N1CCN(c2ccc(OCC3COC(Cn4ccnc4)(c4ccc(Cl)cc4Cl)O3)cc2)CC1", "note": "(stereo not shown) [Ketoconazole]", "values": [{"measurement": "Classification of toxic effect on liver histopathology (type of histopathology)", "setting": "Rats [3]; rat, in vivo", "value": "Phospholipidosis"}]}
{"compound": "CN(C)CCN(Cc1cccs1)c1ccccn1", "note": "[Methapyrilene]", "values": [{"measurement": "Histopathology (Necrosis)", "setting": "Rats [1]; high dose", "value": "Day2~"}, {"measurement": "Histopathology (Necrosis)", "setting": "Rats [1]; low dose", "value": "Day5"}, {"measurement": "Clinical Chemistry ALP", "setting": "Rats [2]; high dose", "value": "Day5"}, {"measurement": "Clinical Chemistry ALT", "setting": "Rats [2]; high dose", "value": "Day2~"}, {"measurement": "Clinical Chemistry AST", "setting": "Rats [2]; high dose", "value": "Day2~"}, {"measurement": "Clinical Chemistry TBIL", "setting": "Rats [2]; high dose", "value": "Day2~"}, {"measurement": "Clinical Chemistry ALT", "setting": "Rats [2]; low dose", "value": "Day5"}, {"measurement": "Clinical Chemistry AST", "setting": "Rats [2]; low dose", "value": "Day5"}, {"measurement": "Clinical Chemistry TBIL", "setting": "Rats [2]; low dose", "value": "Day5"}, {"measurement": "Classification of toxic effect on liver histopathology (type of histopathology)", "setting": "Rats [3]; rat, in vivo", "value": "Necrosis"}]}
{"compound": "CS(=O)(=O)Nc1ccc([N+](=O)[O-])cc1Oc1ccccc1", "note": "[Nimesulide]", "values": [{"measurement": "Hepatotoxic changes in rats (histopathology, clinical chemistry)", "setting": "Rats [1]; rat, in vivo", "value": "no hepatotoxic changes"}, {"measurement": "Clinical Chemistry TBIL", "setting": "Rats [2]; high dose", "value": "Day2"}, {"measurement": "Clinical Chemistry ALT", "setting": "Rats [2]; low dose", "value": "Day5"}, {"measurement": "Clinical Chemistry TBIL", "setting": "Rats [2]; low dose", "value": "Day2"}]}
{"compound": "CN(C)[C@@H]1C(O)=C(C(N)=O)C(=O)[C@@]2(O)C(O)=C3C(=O)c4c(O)cccc4[C@@](C)(O)[C@H]3C[C@@H]12", "note": "[Tetracycline]", "values": [{"measurement": "Histopathology (Steatosis)", "setting": "Rats [1]; high dose", "value": "Day5"}, {"measurement": "Histopathology (Steatosis)", "setting": "Rats [1]; low dose", "value": "Day2~"}]}
{"compound": "Clc1ccccc1CN1CCc2sccc2C1", "note": "[Ticlopidine]", "values": [{"measurement": "Histopathology (Necrosis)", "setting": "Rats [1]; high dose", "value": "Day5"}]}
